The text below walks through data of ChEMBL document CHEMBL4840345, “Penispidins A-C, Aromatic Sesquiterpenoids from Penicillium virgatum and Their Inhibitory Effects on Hepatic Lipid Accumulation” (J Nat Prod, 2021).

Activity calls are given as the source filed them. The calls are words filed in the database; no cut-off is given here.

Series [1] deals with HepG2. In words: Cytotoxicity against human HepG2 cells assessed as cell viability at 10 uM measured after 24 hrs by MTT assay. Format: cell-based. As to conditions: hepg2, 24 h.
Series [2] has as its system HepG2. In words: Hypolipidemic activity in human HepG2 cells assessed as inhibition of oleic acid-BSA induced intracellular lipid accumulation at 10 uM after 24 hrs by Oil Red O staining based microscopic assay. Format: functional, cell-based.
The subject of series [3] is HepG2. In words: Hypolipidemic activity in human HepG2 cells assessed as inhibition of oleic acid-BSA induced triglyceride accumulation at 10 uM after 24 hrs. Format: functional, cell-based.

Regarding `COC(=O)c1ccc2c(c1)OC(C)(C)[C@@H]1CC[C@]21C`, the Activity result in the series with HepG2 [1] is given as “Non-Toxic”. Further, in the series with HepG2 [2], the inhibition entry is “Active”. Moreover, the outcome in the series with HepG2 [3] was Active. Take `C[C@@]12CCC[C@@](C)(C1)c1ccc(C(=O)O)cc1O2`: the Activity result in the series with HepG2 [1] is recorded as “Non-Toxic”. On the same count and under the same terms, next, `C[C@]12CCC[C@](C)(C1)c1ccc(C(=O)O)cc1O2`: “Non-Toxic”; `COC(=O)c1ccc2c(c1)O[C@]1(C)CCC[C@@]2(C)C1`: “Non-Toxic”.
